Measurements taken from patent US12479847B2 (DANA-FARBER CANCER INSTITUTE, INC., priority 2019, dated 2025).

Legend:
Assay in all cases: KINOMEscan (ScanMAX) kinase profiling
Assay type in all cases: binding
[1] = biological target: T1, panel of 468 kinases (Homo sapiens, UniProt P07332); conditions: FES; 1 μM; read-out: % control
T1 construct: purchased KINOMEscan (ScanMAX) service

[2] = biological target: T2, panel of 468 kinases (Homo sapiens, UniProt P17948); conditions: FLT1; 1 μM; read-out: % control
T2 construct: purchased KINOMEscan (ScanMAX) service
T2 sequence (P17948 27-1338): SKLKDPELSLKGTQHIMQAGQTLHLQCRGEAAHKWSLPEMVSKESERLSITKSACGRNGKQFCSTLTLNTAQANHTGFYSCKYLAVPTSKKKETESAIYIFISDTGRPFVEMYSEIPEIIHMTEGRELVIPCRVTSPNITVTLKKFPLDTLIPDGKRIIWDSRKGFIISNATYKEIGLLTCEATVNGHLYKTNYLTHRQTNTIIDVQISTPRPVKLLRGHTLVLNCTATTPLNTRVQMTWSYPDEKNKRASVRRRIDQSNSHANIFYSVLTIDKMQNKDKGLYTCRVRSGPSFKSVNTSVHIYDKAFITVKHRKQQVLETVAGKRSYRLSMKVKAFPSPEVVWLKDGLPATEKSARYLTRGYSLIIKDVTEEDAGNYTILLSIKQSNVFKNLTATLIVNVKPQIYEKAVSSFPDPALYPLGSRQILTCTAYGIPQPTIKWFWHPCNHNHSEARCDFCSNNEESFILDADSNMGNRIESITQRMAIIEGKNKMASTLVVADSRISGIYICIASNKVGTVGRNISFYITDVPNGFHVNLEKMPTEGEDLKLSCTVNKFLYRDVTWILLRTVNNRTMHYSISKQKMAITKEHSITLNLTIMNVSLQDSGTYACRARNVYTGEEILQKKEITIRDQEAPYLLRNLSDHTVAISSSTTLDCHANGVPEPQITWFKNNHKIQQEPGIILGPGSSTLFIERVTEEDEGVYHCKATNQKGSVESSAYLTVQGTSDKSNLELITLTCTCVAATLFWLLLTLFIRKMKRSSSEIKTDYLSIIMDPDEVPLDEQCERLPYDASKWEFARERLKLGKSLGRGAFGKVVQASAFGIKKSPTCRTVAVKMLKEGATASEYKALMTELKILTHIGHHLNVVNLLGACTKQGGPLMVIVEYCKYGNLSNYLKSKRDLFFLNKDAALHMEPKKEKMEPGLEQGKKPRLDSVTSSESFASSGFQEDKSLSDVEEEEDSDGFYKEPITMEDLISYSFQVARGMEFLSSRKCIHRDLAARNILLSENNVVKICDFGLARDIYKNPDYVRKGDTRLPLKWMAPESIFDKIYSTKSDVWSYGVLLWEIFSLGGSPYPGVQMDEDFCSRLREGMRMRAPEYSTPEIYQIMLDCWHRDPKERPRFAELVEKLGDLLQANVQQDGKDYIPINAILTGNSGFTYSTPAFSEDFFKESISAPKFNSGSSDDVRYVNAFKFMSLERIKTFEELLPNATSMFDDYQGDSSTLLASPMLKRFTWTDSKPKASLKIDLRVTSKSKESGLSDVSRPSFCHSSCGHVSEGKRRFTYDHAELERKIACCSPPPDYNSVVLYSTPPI

[3] = biological target: T3, panel of 468 kinases (Homo sapiens, UniProt P22607); conditions: FGFR3; 1 μM; read-out: % control
T3 construct: purchased KINOMEscan (ScanMAX) service
T3 sequence (P22607 23-806): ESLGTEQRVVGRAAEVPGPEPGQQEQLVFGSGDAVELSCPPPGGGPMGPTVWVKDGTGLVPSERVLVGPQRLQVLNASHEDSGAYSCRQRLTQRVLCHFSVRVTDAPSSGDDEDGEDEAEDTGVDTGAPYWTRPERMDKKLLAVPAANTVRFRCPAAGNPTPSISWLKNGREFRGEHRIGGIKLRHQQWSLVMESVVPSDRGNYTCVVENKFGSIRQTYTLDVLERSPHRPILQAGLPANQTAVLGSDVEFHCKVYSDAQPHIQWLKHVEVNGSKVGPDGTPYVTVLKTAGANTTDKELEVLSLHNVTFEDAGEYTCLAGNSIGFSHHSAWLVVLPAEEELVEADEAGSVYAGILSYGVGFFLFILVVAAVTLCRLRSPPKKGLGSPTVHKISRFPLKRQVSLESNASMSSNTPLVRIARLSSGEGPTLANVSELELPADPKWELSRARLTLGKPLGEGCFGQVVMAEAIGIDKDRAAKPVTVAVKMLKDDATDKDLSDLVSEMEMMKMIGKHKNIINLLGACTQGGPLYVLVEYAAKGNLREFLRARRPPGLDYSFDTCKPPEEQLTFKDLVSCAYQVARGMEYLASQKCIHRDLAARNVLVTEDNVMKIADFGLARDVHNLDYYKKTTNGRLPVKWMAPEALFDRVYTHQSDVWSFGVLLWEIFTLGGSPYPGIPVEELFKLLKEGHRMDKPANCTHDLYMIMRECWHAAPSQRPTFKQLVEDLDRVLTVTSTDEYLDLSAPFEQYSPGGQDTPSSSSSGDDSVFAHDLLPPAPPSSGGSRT

[4] = biological target: T4, panel of 468 kinases (Homo sapiens, UniProt P29320); conditions: EPHA3; 1 μM; read-out: % control
T4 construct: purchased KINOMEscan (ScanMAX) service
T4 sequence (P29320 21-983): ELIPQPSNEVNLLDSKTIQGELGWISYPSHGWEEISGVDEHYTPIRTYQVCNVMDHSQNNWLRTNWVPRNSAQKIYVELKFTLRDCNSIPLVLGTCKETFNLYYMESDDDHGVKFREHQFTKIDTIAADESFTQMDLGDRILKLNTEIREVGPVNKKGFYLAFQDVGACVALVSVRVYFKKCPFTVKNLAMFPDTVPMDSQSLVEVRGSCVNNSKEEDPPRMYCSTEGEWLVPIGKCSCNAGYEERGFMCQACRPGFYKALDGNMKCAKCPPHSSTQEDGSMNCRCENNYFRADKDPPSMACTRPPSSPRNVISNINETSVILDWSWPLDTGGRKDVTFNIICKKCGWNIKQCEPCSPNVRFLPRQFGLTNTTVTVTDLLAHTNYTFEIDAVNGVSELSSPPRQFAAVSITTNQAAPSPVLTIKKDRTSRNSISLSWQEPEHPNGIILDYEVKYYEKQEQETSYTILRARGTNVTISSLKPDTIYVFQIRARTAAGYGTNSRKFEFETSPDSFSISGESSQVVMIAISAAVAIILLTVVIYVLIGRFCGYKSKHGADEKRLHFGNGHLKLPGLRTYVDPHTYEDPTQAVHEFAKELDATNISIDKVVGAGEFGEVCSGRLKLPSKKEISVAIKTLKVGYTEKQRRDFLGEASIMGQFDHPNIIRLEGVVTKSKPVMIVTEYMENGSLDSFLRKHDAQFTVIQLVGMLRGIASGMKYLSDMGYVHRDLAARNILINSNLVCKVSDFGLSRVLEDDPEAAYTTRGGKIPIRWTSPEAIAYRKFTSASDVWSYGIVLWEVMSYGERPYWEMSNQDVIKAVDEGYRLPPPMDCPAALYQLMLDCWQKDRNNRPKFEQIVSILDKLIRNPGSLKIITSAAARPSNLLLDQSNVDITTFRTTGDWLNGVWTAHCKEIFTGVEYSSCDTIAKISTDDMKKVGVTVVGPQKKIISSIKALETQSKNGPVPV

[5] = biological target: T5, panel of 468 kinases (Homo sapiens, UniProt P36897); conditions: TGFBR1; 1 μM; read-out: % control
T5 construct: purchased KINOMEscan (ScanMAX) service
T5 sequence (P36897 34-503): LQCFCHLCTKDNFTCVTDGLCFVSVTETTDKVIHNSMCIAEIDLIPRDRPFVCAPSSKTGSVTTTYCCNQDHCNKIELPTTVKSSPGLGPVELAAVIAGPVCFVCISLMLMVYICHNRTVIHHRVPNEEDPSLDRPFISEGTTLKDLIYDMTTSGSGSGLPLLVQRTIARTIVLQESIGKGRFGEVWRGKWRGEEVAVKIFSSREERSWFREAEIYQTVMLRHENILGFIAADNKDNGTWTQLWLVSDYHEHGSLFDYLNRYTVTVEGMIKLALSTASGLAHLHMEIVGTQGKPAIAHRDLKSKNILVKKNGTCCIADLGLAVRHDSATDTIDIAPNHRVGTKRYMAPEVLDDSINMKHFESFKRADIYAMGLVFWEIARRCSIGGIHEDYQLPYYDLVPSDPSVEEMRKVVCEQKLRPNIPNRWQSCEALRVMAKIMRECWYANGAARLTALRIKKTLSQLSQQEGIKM

[6] = biological target: T6, panel of 468 kinases (Homo sapiens, UniProt P37173); conditions: TGFBR2; 1 μM; read-out: % control
T6 construct: purchased KINOMEscan (ScanMAX) service
T6 sequence (P37173 23-567): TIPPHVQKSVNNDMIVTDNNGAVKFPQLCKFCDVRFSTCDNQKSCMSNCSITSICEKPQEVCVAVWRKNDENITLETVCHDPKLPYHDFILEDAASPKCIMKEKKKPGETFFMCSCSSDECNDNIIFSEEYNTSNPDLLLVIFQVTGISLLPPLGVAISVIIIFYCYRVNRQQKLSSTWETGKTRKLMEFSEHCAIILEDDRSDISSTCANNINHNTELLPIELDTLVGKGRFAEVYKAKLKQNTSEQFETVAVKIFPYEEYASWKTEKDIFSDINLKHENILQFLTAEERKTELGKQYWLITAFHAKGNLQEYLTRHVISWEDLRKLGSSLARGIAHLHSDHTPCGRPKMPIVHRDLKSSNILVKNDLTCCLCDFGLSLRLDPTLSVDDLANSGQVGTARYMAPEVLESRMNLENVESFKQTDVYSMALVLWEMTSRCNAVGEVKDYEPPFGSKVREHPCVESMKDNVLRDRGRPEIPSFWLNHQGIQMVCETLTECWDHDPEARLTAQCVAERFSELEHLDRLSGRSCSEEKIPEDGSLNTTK

[7] = biological target: T7, panel of 468 kinases (Homo sapiens, UniProt P42336, E542K); conditions: PIK3CA(E542K); 1 μM; read-out: % control
T7 construct: purchased KINOMEscan (ScanMAX) service

[8] = biological target: T8, panel of 468 kinases (Homo sapiens, UniProt Q13523); conditions: PRP4; 1 μM; read-out: % control
T8 construct: purchased KINOMEscan (ScanMAX) service
T8 sequence (Q13523 whole entry): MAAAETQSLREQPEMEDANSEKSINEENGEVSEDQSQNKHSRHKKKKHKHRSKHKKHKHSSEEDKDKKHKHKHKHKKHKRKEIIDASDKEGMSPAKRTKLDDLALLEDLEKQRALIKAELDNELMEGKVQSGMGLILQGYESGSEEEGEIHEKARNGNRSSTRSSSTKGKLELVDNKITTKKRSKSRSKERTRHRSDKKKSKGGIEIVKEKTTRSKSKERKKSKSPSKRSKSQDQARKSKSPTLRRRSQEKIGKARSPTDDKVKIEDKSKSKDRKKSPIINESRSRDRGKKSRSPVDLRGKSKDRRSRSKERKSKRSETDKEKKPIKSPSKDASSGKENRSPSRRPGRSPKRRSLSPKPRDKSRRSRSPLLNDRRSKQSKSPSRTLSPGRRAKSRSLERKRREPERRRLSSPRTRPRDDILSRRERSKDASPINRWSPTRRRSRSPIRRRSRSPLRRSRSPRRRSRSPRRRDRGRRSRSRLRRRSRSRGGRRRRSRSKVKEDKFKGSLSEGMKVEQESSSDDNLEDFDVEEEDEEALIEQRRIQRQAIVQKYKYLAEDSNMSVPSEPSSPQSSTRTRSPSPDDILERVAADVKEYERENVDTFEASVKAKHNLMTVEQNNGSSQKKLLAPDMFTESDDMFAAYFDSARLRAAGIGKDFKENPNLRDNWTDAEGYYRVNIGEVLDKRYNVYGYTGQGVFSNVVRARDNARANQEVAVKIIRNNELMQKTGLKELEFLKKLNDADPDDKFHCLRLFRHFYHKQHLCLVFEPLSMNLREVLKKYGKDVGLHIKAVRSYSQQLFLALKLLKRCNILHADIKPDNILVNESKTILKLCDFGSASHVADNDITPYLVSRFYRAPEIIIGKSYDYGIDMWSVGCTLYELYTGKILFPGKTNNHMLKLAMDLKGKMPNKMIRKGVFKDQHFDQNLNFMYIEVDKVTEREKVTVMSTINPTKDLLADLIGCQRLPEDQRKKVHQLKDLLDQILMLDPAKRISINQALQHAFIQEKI

[9] = biological target: T9, panel of 468 kinases (Homo sapiens, UniProt Q15835); conditions: GRK1; 1 μM; read-out: % control
T9 construct: purchased KINOMEscan (ScanMAX) service
T9 sequence (Q15835 1-563): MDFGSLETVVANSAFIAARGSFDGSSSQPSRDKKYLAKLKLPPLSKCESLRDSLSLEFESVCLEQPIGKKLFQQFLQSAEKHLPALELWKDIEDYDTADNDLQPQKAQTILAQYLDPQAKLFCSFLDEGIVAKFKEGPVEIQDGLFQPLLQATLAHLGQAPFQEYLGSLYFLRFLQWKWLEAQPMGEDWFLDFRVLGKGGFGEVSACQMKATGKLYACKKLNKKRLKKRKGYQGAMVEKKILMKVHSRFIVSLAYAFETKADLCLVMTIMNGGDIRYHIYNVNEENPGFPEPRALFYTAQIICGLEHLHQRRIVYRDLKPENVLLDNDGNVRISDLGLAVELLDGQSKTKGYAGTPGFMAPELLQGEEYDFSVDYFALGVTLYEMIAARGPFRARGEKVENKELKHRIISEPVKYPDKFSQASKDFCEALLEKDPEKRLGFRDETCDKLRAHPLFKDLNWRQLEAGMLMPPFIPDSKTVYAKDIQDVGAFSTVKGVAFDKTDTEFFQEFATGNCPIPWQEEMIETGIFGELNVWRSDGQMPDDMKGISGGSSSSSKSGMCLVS

[10] = biological target: T10, panel of 468 kinases (Homo sapiens, UniProt Q8IY84); conditions: NIM1; 1 μM; read-out: % control
T10 construct: purchased KINOMEscan (ScanMAX) service
T10 sequence (Q8IY84 whole entry): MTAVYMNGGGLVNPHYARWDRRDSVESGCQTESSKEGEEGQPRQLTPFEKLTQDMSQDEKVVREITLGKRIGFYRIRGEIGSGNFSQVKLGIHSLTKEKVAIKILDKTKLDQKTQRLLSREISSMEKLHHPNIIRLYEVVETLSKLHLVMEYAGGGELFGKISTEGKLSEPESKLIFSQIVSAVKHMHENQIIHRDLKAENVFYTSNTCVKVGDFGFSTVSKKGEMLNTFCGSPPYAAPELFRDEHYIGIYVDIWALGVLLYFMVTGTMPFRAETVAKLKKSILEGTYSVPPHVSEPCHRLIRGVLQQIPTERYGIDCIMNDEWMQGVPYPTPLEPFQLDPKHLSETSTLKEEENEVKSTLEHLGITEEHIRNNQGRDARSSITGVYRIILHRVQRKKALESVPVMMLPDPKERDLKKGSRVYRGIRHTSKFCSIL

T1 sequence (P07332 whole entry): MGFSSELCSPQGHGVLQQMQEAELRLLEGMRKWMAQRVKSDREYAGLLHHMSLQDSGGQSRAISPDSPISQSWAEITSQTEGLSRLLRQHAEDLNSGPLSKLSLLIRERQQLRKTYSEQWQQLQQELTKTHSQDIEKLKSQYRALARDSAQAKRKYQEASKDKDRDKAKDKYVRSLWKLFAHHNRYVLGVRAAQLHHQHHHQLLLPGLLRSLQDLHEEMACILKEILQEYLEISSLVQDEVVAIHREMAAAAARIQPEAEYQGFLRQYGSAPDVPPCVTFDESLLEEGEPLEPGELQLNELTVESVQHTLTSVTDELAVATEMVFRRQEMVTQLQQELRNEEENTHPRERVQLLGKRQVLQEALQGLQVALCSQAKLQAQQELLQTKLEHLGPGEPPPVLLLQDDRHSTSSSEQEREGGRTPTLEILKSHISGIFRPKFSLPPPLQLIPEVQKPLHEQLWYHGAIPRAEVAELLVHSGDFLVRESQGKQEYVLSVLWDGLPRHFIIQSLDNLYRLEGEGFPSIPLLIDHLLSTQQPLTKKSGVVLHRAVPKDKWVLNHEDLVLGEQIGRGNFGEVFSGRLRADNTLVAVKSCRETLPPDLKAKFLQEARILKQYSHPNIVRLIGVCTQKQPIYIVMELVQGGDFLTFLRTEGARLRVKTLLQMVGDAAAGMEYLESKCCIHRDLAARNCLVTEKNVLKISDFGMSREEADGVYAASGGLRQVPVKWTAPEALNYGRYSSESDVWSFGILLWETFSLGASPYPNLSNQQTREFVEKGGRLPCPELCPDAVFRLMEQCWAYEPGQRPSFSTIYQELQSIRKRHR

Compound | remaining binding at 1 µM [1] [%] | remaining binding at 1 µM [2] [%] | remaining binding at 1 µM [3] [%] | remaining binding at 1 µM [4] [%] | remaining binding at 1 µM [5] [%] | remaining binding at 1 µM [6] [%] | remaining binding at 1 µM [7] [%] | remaining binding at 1 µM [8] [%] | remaining binding at 1 µM [9] [%] | remaining binding at 1 µM [10] [%]
CNc1nc(Nc2ccc(S(=O)(=O)N3CCC(N4CCOCC4)CC3)cc2OC)nc2[nH]cc(Cl)c12 [Compound 12, 5-chloro-N2-(2-methoxy-4-((4-morpholinopiperidin-1-yl)sulfonyl)phenyl)-N4-methyl-7H-pyrrolo[2,3-d]pyrimidine-2,4-diamine] | 100 | 100 | 100 | 100 | 86 | 100 | 65 | 100 | 79 | 82
CNc1nc(Nc2ccc(C(=O)N3CCC(N4CCOCC4)CC3)c3c2OCO3)nc2[nH]cc(Cl)c12 [Compound 75, (7-((5-chloro-4-(methylamino)-7H-pyrrolo[2,3-d]pyrimidin-2-yl)amino)benzo[d][1,3]dioxol-4-yl)(4-morpholinopiperidin-1-yl)methanone] | 81 | 73 | 98 | 100 | 68 | 100 | 78 | 100 | 88 | 73
CNc1nc(Nc2ccc(P3(=O)CCN(C4CCOCC4)CC3)cc2OC)nc2[nH]cc(Cl)c12 [Compound 77, 4-(4-((5-chloro-4-(methylamino)-7H-pyrrolo[2,3-d]pyrimidin-2-yl)amino)-3-methoxyphenyl)-1-(tetrahydro-2H-pyran-4-yl)-1,4-azaphosphinane 4-oxide] | 80 | 100 | 100 | 100 | 72 | 100 | 67 | 100 | 88 | 88
